Assay results published in patent publication US11224565B2, “N-acyldipeptide derivatives and their uses” (NeoStrata Company, Inc., priority 2011, dated 2022).
Peptide text beside a SMILES is read from it.

What was measured:
Assay type in all cases: in vivo, human
forearm skin = test: Skin thickness of forearm by micrometer calipers after topical application; settings: for increase in skin thickness of treated left forearm: 2% (w/v) in WEP442 topically twice daily, vehicle forearm no change
Experimental: In one of the studies related to skin changes associated with aging, skin thickness was measured by micrometer calipers as follows. The skin was grasped with a 2×6 cm metal hinge; the internal faces of which were coated with emery cloth to prevent slippage, and manually squeezed to threshold subject discomfort. Combined thickness of two whole-skin layers including thickness of the two hinge leaves was measured with micrometer calipers. Thickness of the two hinge leaves was subtracted to determine the actual thickness of two whole-skin layers. Triplicate measurements on treated sites were done and an average number was used for calculation of the skin thickness. In other studies, test sites of skin 17 mm in diameter were used, the circular sites were marked with permanent ink. Intervening control sites were also 17 mm in diameter. Thickness of skin of all sites was measured directly by means of an electronic digital caliper. In this instance the jaws of the caliper were opened to 17 mm, applied with pressure to the skin sites and then closed to firm tightness. Thickness of skin was then read off the screen of the calipers. Measurements of all sites were made in triplicates.

[1] = system: inflammation, dermatitis, or eczema lesions; test: Topical application to chronic inflammation, dermatitis, eczema or allergic skin lesions, clinical evaluation; settings: chronic eczema, twice daily, 0.6% (w/w) N-Ac-L-Tyr-L-Tyr-NHNH2 cream on one set of lesions, 0.7% (w/w) N-Ac-L-Tyr-L-Tyr-NHNHAc cream on another
Description: In another embodiment, the volunteer subject topically applied the test compositions containing N-acyldipeptide derivatives of the present invention on involved skin or lesions once or twice daily for several weeks or until the involved lesions completely cleared and clinically changed to normal skin. As a control study, the subject also topically applied a vehicle control composition on the involved skin or lesions twice daily for the same period.

Disturbed keratinization = test: Summary of test results in volunteer subjects: disturbed keratinization; settings: efficacy grade
Description: (§1) In one embodiment, a composition for topical application to test its therapeutic effect was formulated by dissolving a bioactive dipeptide derivative of the present invention in a solution prepared from 40 parts water, 40 parts ethanol and 20 parts propylene glycol by volume (WEP442). In another embodiment, a composition was formulated by dissolving a bioactive dipeptide derivative of the present invention in a non-aqueous solution prepared from 80 parts ethanol and 20 parts propylene glycol by volume (EP82). In yet another embodiment, a composition was formulated first by dissolving a bioactive dipeptide derivative of the present invention in a solution prepared from 80 parts water and 20 parts propylene glycol by volume (WP82), and the solution thus prepared was mixed with an oil-in-water emulsion or cream. In another embodiment, the volunteer subject topically applied the test compositions containing N-acyldipeptide derivatives of the present invention on involved skin or lesions once or twice daily for several weeks or until the involved lesions completely cleared and clinically changed to normal skin. As a control study, the subject also topically applied a vehicle control composition on the involved skin or lesions twice daily for the same period. In yet another embodiment, the volunteer subject topically applied once or twice daily the test compositions containing N-acyldipeptide derivatives of the present invention on the skin site above arthritic joints or painful muscles to provide therapeutic effects for the systemic disorders via topical administration. Some test results are summarized as follows. DK: Disturbed keratinization

[2] = system: Aging related changes of skin, nail and hair; test: Summary of test results in volunteer subjects: aging related changes; settings: efficacy grade
Description: as §1, with “AG: Aging related changes of skin, nail and hair” for “DK: Disturbed keratinization”

[3] = system: Deranged immune disorders and inflammation; test: Summary of test results in volunteer subjects: deranged immune disorders and inflammation; settings: efficacy grade
Description: as §1, with “DI: Deranged immune disorders and inflammation” for “DK: Disturbed keratinization”

Nerve disorders = test: Summary of test results in volunteer subjects: nerve disorders; settings: efficacy grade
Description: as §1, with “ND: Nerve disorders” for “DK: Disturbed keratinization”

**Q.** How did the “appearance of treated left forearm at end of treatment” value (forearm skin; 1-3% (w/v) in WEP442 topically twice daily for 1-6 weeks as in the example, vehicle forearm still loose, thin and wrinkled) turn out when `CC(=O)N[C@@H](Cc1ccc(O)cc1)C(=O)N[C@@H](Cc1ccc(O)cc1)C(=O)NN` [N-Ac-L-Tyr-L-Tyr-NHNH2] (HELM PEPTIDE1{[ac].Y.Y.[NN[*:1]]}$$$$V2.0) was run?
**A.** The value was “more firm, smooth, plump, and less wrinkled when lifted”.

**Q.** What about the “increase in skin thickness of treated left forearm” value (“increase in skin thickness” below) (forearm skin; after one week) of the same molecule?
**A.** Its value is 15%.

**Q.** What about the “increase in skin thickness” value (forearm skin; after three weeks) of the same molecule?
**A.** The value was 32%.

**Q.** And the “increase in skin thickness” value (forearm skin; after two weeks)?
**A.** The value was 14%.

**Q.** And the “improvement as judged by clinical evaluation” value ([1]; two weeks)?
**A.** The value was 75%.

**Q.** What about the “itch after topical application” value [1] of the same molecule?
**A.** Its value is “stopped a few minutes after”.

**Q.** And the DK (Disturbed keratinization)?
**A.** The DK was 3+ (3+: 75% Efficacy).

**Q.** And the AG [2]?
**A.** Its AG is 3+ (3+: 75% Efficacy).

**Q.** What about the DI [3] of the same molecule?
**A.** Its DI is 2+ (2+: 50% Efficacy).

**Q.** What about the ND (Nerve disorders) of the same molecule?
**A.** The ND was 2+ (2+: 50% Efficacy).

**Q.** How did the DK (Disturbed keratinization) turn out when `CC(=O)NCCC(=O)NCC(N)=O` [N-Ac-β-Ala-Gly-NH2] was run?
**A.** The DK was 2+ (2+: 50% Efficacy).

**Q.** And the AG [2]?
**A.** Its AG is 2+ (2+: 50% Efficacy).

**Q.** What about the DI [3] of the same molecule?
**A.** The DI was 2+ (2+: 50% Efficacy).

**Q.** What about the ND (Nerve disorders) of the same molecule?
**A.** Its ND is 2+ (2+: 50% Efficacy).

**Q.** Which DK (Disturbed keratinization) does the source give for `CC[C@H](C)[C@H](NC(C)=O)C(=O)N[C@@H](Cc1ccc(O)cc1)C(N)=O` [N-Ac-L-Ile-L-Tyr-NH2] (Ac-Ile-Tyr-NH2) here?
**A.** Its DK is 2+ (2+: 50% Efficacy).

**Q.** What about the AG [2] of the same molecule?
**A.** Its AG is 2+ (2+: 50% Efficacy).

**Q.** What about the DI [3] of the same molecule?
**A.** The DI was 2+ (2+: 50% Efficacy).

**Q.** And the ND (Nerve disorders)?
**A.** Its ND is 2+ (2+: 50% Efficacy).

**Q.** For `CCOC(=O)[C@H](Cc1ccc(O)cc1)NC(=O)[C@H](Cc1ccc(O)cc1)NC(C)=O` [N-Ac-L-Tyr-L-Tyr-OEt] (HELM PEPTIDE1{[ac].Y.Y.[CCO[*:1]]}$$$$V2.0), which DK (Disturbed keratinization) is on record?
**A.** The DK was 2+ (2+: 50% Efficacy).

**Q.** And the AG [2]?
**A.** The AG was 2+ (2+: 50% Efficacy).

**Q.** And the DI [3]?
**A.** Its DI is 2+ (2+: 50% Efficacy).

**Q.** What about the ND (Nerve disorders) of the same molecule?
**A.** Its ND is 2+ (2+: 50% Efficacy).

**Q.** What does the source list for `CC(=O)N[C@H](C(=O)NCC(N)=O)C(C)C` [N-Ac-L-Val-Gly-NH2] (Ac-Val-Gly-NH2)?
**A.** DK (Disturbed keratinization): 2+ (2+: 50% Efficacy); AG [2]: 2+ (2+: 50% Efficacy); DI [3]: 4+ (4+: 95-100% Efficacy); ND (Nerve disorders): 4+ (4+: 95-100% Efficacy)

**Q.** Which results are given for `CC[C@H](C)[C@H](NC(=O)[C@H](C)NC(C)=O)C(N)=O` [N-Ac-L-Ala-L-Ile-NH2] (Ac-Ala-Ile-NH2)?
**A.** DK (Disturbed keratinization): 2+ (2+: 50% Efficacy); AG [2]: 2+ (2+: 50% Efficacy); DI [3]: 3+ (3+: 75% Efficacy); ND (Nerve disorders): 3+ (3+: 75% Efficacy)

**Q.** Which results are given for `CC(=O)N[C@@H](Cc1c[nH]cn1)C(=O)NCC(N)=O` [N-Ac-L-His-Gly-NH2] (Ac-His-Gly-NH2)?
**A.** DK (Disturbed keratinization): 2+ (2+: 50% Efficacy); AG [2]: 2+ (2+: 50% Efficacy); DI [3]: 2+ (2+: 50% Efficacy); ND (Nerve disorders): 2+ (2+: 50% Efficacy)

**Q.** Which DK (Disturbed keratinization) does the source give for `CC(=O)N[C@@H](CC(C)C)C(=O)NCC(=O)O` [N-Ac-L-Leu-Gly-OH] (Ac-Leu-Gly-OH) here?
**A.** Its DK is 2+ (2+: 50% Efficacy).

**Q.** What about the AG [2] of the same molecule?
**A.** The AG was 2+ (2+: 50% Efficacy).

**Q.** What about the DI [3] of the same molecule?
**A.** Its DI is 3+ (3+: 75% Efficacy).

**Q.** And the ND (Nerve disorders)?
**A.** The ND was 3+ (3+: 75% Efficacy).

**Q.** With `CC[C@H](C)[C@H](NC(C)=O)C(=O)NCC(=O)O` [N-Ac-L-Ile-Gly-OH] (Ac-Ile-Gly-OH) as the molecule, how does the DK (Disturbed keratinization) read?
**A.** The DK was 2+ (2+: 50% Efficacy).

**Q.** And the AG [2]?
**A.** Its AG is 2+ (2+: 50% Efficacy).

**Q.** And the DI [3]?
**A.** The DI was 3+ (3+: 75% Efficacy).

**Q.** What about the ND (Nerve disorders) of the same molecule?
**A.** Its ND is 4+ (4+: 95-100% Efficacy).

**Q.** `NC(=O)CNC(=O)[C@H](Cc1ccc(O)cc1)NC(=O)OCc1ccccc1` [N-Z-L-Tyr-Gly-NH2] was tested. Which DK (Disturbed keratinization) did it give?
**A.** The DK was 2+ (2+: 50% Efficacy).

**Q.** And the AG [2]?
**A.** Its AG is 2+ (2+: 50% Efficacy).

**Q.** What about the DI [3] of the same molecule?
**A.** Its DI is 2+ (2+: 50% Efficacy).

**Q.** What about the ND (Nerve disorders) of the same molecule?
**A.** The ND was 2+ (2+: 50% Efficacy).

**Q.** Which DK (Disturbed keratinization) does the source give for `CC(=O)N[C@@H](CC(C)C)C(=O)N[C@@H](CC(C)C)C(N)=O` [N-Ac-L-Leu-L-Leu-NH2] here?
**A.** Its DK is 2+ (2+: 50% Efficacy).

**Q.** What about the AG [2] of the same molecule?
**A.** Its AG is 2+ (2+: 50% Efficacy).

**Q.** What about the DI [3] of the same molecule?
**A.** The DI was 2+ (2+: 50% Efficacy).

**Q.** And the ND (Nerve disorders)?
**A.** The ND was 2+ (2+: 50% Efficacy).

**Q.** `CC(=O)N[C@@H](CCC(N)=O)C(=O)NCC(N)=O` [N-Ac-L-Gln-Gly-NH2] (Ac-Gln-Gly-NH2) was tested. Which DK (Disturbed keratinization) did it give?
**A.** Its DK is 2+ (2+: 50% Efficacy).

**Q.** And the AG [2]?
**A.** Its AG is 2+ (2+: 50% Efficacy).

**Q.** And the DI [3]?
**A.** Its DI is 2+ (2+: 50% Efficacy).

**Q.** And the ND (Nerve disorders)?
**A.** The ND was 2+ (2+: 50% Efficacy).

**Q.** Which DK (Disturbed keratinization) does the source give for `CC(=O)NCCCC(=O)NCC(N)=O` [N-Ac-Gaba-Gly-NH2] here?
**A.** Its DK is 2+ (2+: 50% Efficacy).

**Q.** What about the AG [2] of the same molecule?
**A.** Its AG is 2+ (2+: 50% Efficacy).

**Q.** And the DI [3]?
**A.** Its DI is 2+ (2+: 50% Efficacy).

**Q.** What about the ND (Nerve disorders) of the same molecule?
**A.** Its ND is 2+ (2+: 50% Efficacy).

**Q.** Which DK (Disturbed keratinization) does the source give for `CC(=O)N[C@H](C(=O)N[C@@H](Cc1ccc(O)cc1)C(N)=O)C(C)C` [N-Ac-L-Val-L-Tyr-NH2] (Ac-Val-Tyr-NH2) here?
**A.** Its DK is 2+ (2+: 50% Efficacy).

**Q.** And the AG [2]?
**A.** The AG was 2+ (2+: 50% Efficacy).

**Q.** And the DI [3]?
**A.** Its DI is 2+ (2+: 50% Efficacy).

**Q.** And the ND (Nerve disorders)?
**A.** Its ND is 2+ (2+: 50% Efficacy).
